What all share (conditions): 0.0630 kg/ha
For test [1], the system named is Velvetleaf, Abutilon theophrasti. The test is described as follows: Postemergence herbicidal evaluation, ABUTH. In kind it is in vivo, Medic. The procedure: (§1) In the tests, seedling plants are grown in jiffy flats for about two weeks. The test compounds are dispersed in 50/50 acetone/water mixtures containing 0.5% TWEEN®20, a polyoxyethylene sorbitan monolaurate surfactant of Atlas Chemical Industries, in sufficient quantities to provide the equivalent of about 0.0157 kg to 0.500 kg per hectare of active compound when applied to the plants through a spray nozzle operating at 40 psi for a predetermined time. After spraying, the plants are placed on greenhouse benches and are cared for in accordance with conventional greenhouse procedures. From four to five weeks after treatment, the seedling plants are examined and rated according to the rating system set forth below. Where more than one test is involved for a given compound, the data are averaged.
(§2) Results of herbicide evaluation are expressed on a rating scale (0-9). The scale is based upon a visual observation of plant stand, vigor, malformation, size, chlorosis and overall plant appearance as compared with a control.

For test [2], the system named is Ragweed, Common, Ambrosia artemisifolia. The test is described as follows: Postemergence herbicidal evaluation, AMBEL. In kind it is in vivo, L. The procedure: as §1, §2
For test [3], the system named is Sicklepod, Cassia obtusifolia. The experiment in a line: Postemergence herbicidal evaluation, CASOB. In kind it is in vivo, L. The procedure:
as §1, §2

Test [4] concerns Lambsquarters, Common, Chenopodium album. The experiment in a line: Postemergence herbicidal evaluation, CHEAL. In kind it is in vivo, L. As to the method:
as §1, §2

Test [5] concerns Galium, Galium aparine. The test is described as follows: Postemergence herbicidal evaluation, GALAP. Format: in vivo. The procedure:
as §1, §2

Test [6] concerns Morningglory, Ivyleaf, Ipomoea hederacea. The test is described as follows: Postemergence herbicidal evaluation, IPOHE. Format: in vivo, (L.) Jacq. The procedure:
as §1, §2

In test [7] the test system is Barnyardgrass, Echinochloa crus-galli. The experiment in a line: Postemergence herbicidal evaluation, ECHCG. Format: in vivo, (L.) Beau. As to the method: as §1, §2
Test [8] relates to Foxtail, Green, Setaria viridis. The test is described as follows: Postemergence herbicidal evaluation, SETVI. In kind it is in vivo, (L.) Beau. As to the method:
as §1, §2

Test [9] concerns Soybean, Williams, Glycine max. The test is described as follows: Postemergence herbicidal evaluation, GLXMAW. Format: in vivo, (L.) Merr. cv Williams. As to the method:
as §1, §2

For test [10], the system named is Rice, Tebonnet, Oryza sativa. The test is described as follows: Postemergence herbicidal evaluation, ORYSAT. Format: in vivo, (L.) Tebonnet. As to the method:
as §1, §2

In test [11] the test system is Wheat, Winter, cv Riband, Triticum aestivum. The test is described as follows: Postemergence herbicidal evaluation, TRZAWR. In kind it is in vivo. As to the method: as §1, §2
For test [12], the system named is Corn, Field, Zea mays. The test is described as follows: Postemergence herbicidal evaluation, ZEAMX. Format: in vivo, L. The procedure: as §1, §2

SMILES strings stand for the structures.

In the case of `CC#CCOC(=O)C(C)Oc1ccc(C)cc1-c1nsc2ccc(-n3c(=O)cc(C(F)(F)F)n(C)c3=O)cc12` (stereo not drawn) [Compound 80, 2-Butynyl 2-{{2-{5-[3,6-dihydro-3-methyl-2,6-dioxo-4-(trifluoromethyl)-1(2H)-pyrimidinyl]-1,2-benzisothiazol-3-yl}-p-tolyl}oxy}propionate], the “herbicide rating (0-9)” value in [1] worked out at 9.0; in test [2], 9.0; in test [3] it was 7.0; in test [4] it was 9.0; in [5] it was 9.0; in test [6], 9.0. Besides, the “herbicide rating (0-9)” value is listed as 9.0 in [7]; 9.0 in test [8]; 7.5 in test [9]; 7.5 in [10]; 8.0 in test [11]; 7.5 in test [12].

As to `Cc1ccc(OC(C)C(=O)OCCCl)c(-c2nsc3ccc(-n4c(=O)cc(C(F)(F)F)n(C)c4=O)cc23)c1` (stereo not drawn) [Compound 81, 2-Chloroethyl 2-{{2-{5-[3,6-dihydro-3-methyl-2,6-dioxo-4-(trifluoromethyl)-1(2H)-pyrimidinyl]-1,2-benzisothiazol-3-yl}-p-tolyl}oxy}propionate], the “herbicide rating (0-9)” value in test [1] was determined as 9.0; in test [2] it was 9.0; in test [3], 3.0; in test [4] it was 9.0; in test [5], 9.0; in test [6], 9.0. Besides, the “herbicide rating (0-9)” value in test [7] was determined as 9.0; in test [8], 9.0; in [9] it was 7.0; in test [10], 8.0; in [11], 8.5; in test [12] it was 8.0.

As for `Cc1ccc(OC(C)C(=O)OC(C)C)c(-c2nsc3ccc(-n4c(=O)cc(C(F)(F)F)n(C)c4=O)cc23)c1` (stereo not drawn) [Compound 82, Isopropyl 2-{{2-{5-[3,6-dihydro-3-methyl-2,6-dioxo-4-(trifluoromethyl)-1(2H)-pyrimidinyl)-1,2-benzisothiazol-3-yl}-p-tolyl}oxy}propionate], the “herbicide rating (0-9)” value in test [1] amounted to 9.0; in test [2], 6.0; in test [3] it was 1.0; in test [4] it was 9.0; in test [5] it was 4.0; in [6] it was 9.0. In addition, the “herbicide rating (0-9)” value in [7] is given as 7.0; in [8], 9.0; in test [9], 5.5; in test [10] it was 5.5; in test [11], 6.0; in test [12], 5.5.

As to `CCC(CC)OC(=O)COc1ccc(C)cc1-c1nsc2ccc(-n3c(=O)cc(C(F)(F)F)n(C)c3=O)cc12` [Compound 83, 1-Ethylpropyl {{2-{5-[3,6-dihydro-3-methyl-2,6-dioxo-4-(trifluoromethyl)-1(2H)-pyrimidinyl)-1,2-benzisothiazol-3-yl}-p-tolyl}oxy}acetate], the “herbicide rating (0-9)” value worked out at 9.0 in test [1]; 9.0 in test [2]; 3.0 in test [3]; 9.0 in test [4]; 7.0 in test [5]; 9.0 in test [6]. Moreover, the “herbicide rating (0-9)” value in [7] came out at 9.0; in [8], 9.0; in [9], 8.0; in test [10], 7.5; in [11], 6.5; in [12] it was 6.0.

(Values after patent US6156700A, “3-(1,2-Benzisothiazol- and isoxazol-5-yl)-2,4(1H,3H)-pyrimidinedione or thione and 3-(1,2-benzisothiazol- and isoxazol-5-yl)-4(3H)-pyrimidinone or thione herbicidal agents” (American Cyanmid Company, priority 1998, dated 2000).)
